Measured values reported in PubChem BioAssay AID248 (DTP/NCI, 2004).
Values joined by “and” are separate entries in the source; they are usually repeats but may differ in a detail not shown here. Equal entries are not always repeated. Inconclusive results and toxic doses are left out. No stated cut-off is given here; in the data, active means T/C of 150% or more; inactive means T/C below 125%.

System: L1210 leukemia ip in BDF1 mice, survival T/C
Test: NCI In Vivo Anticancer Drug Screen. Data for tumor model L1210 Leukemia (intraperitoneal) in B6D2F1 (BDF1) mice
Details: endpoint: mean survival time, higher = longer survival
Procedure, shortened: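 Ratio derived from survival: compound-dosed mice over vehicle-dosed mice, all bearing a transplantable tumor.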

[1] = dose: 100.0 mg/kg/injection, schedule: Q04DX003 (ip), vehicle: carboxymethylcellulose (CMC)
[2] = dose: 200.0 mg/kg/injection, schedule: Q04DX003 (ip), vehicle: carboxymethylcellulose (CMC)
[3] = dose: 50.0 mg/kg/injection, schedule: Q01DX001 (ip), vehicle: saline
[4] = dose: 100.0 mg/kg/injection, schedule: Q01DX001 (ip), vehicle: saline
[5] = dose: 100.0 mg/kg/injection, schedule: Q04DX002 (ip), vehicle: saline with Tween-80
[6] = dose: 200.0 mg/kg/injection, schedule: Q04DX002 (ip), vehicle: saline with Tween-80
[7] = dose: 400.0 mg/kg/injection, schedule: Q04DX002 (ip), vehicle: saline with Tween-80
[8] = dose: 100.0 mg/kg/injection, schedule: Q04DX002 (ip), vehicle: Klucel (hydroxypropylcellulose) (HPC)
[9] = dose: 200.0 mg/kg/injection, schedule: Q04DX002 (ip), vehicle: Klucel (hydroxypropylcellulose) (HPC)
[10] = dose: 400.0 mg/kg/injection, schedule: Q04DX002 (ip), vehicle: Klucel (hydroxypropylcellulose) (HPC)
[11] = dose: 50.0 mg/kg/injection, schedule: Q01DX009 (ip), vehicle: saline with Tween-80
[12] = dose: 100.0 mg/kg/injection, schedule: Q04DX003 (ip), vehicle: saline with Tween-80
[13] = dose: 200.0 mg/kg/injection, schedule: Q04DX003 (ip), vehicle: saline with Tween-80
[14] = dose: 100.0 mg/kg/injection, schedule: Q04DX003 (ip), vehicle: Klucel (hydroxypropylcellulose) (HPC)
[15] = dose: 100.0 mg/kg/injection, schedule: Q01DX001 (ip), vehicle: Klucel (hydroxypropylcellulose) (HPC)
[16] = dose: 200.0 mg/kg/injection, schedule: Q01DX001 (ip), vehicle: Klucel (hydroxypropylcellulose) (HPC)
[17] = dose: 100.0 mg/kg/injection, schedule: Q01DX009 (ip), vehicle: Klucel (hydroxypropylcellulose) (HPC)
[18] = dose: 200.0 mg/kg/injection, schedule: Q01DX009 (ip), vehicle: Klucel (hydroxypropylcellulose) (HPC)
[19] = dose: 400.0 mg/kg/injection, schedule: Q01DX009 (ip), vehicle: Klucel (hydroxypropylcellulose) (HPC)

Measured: T/C

COC(=O)c1ccccc1N(C)C(=O)Nc1ccc(F)cc1
inactive: dose: 100.0 mg/kg/injection, schedule: Q01DX001 (ip), vehicle: carboxymethylcellulose (CMC) 94 % of control | dose: 100.0 mg/kg/injection, schedule: Q01DX009 (ip), vehicle: carboxymethylcellulose (CMC) 92 % of control and 97 % of control | dose: 100.0 mg/kg/injection, schedule: Q04DX002 (ip), vehicle: carboxymethylcellulose (CMC) 92 % of control and 100 % of control | [1] 104 % of control | dose: 200.0 mg/kg/injection, schedule: Q01DX001 (ip), vehicle: carboxymethylcellulose (CMC) 101 % of control | dose: 200.0 mg/kg/injection, schedule: Q01DX009 (ip), vehicle: carboxymethylcellulose (CMC) 87 % of control and 90 % of control | dose: 200.0 mg/kg/injection, schedule: Q04DX002 (ip), vehicle: carboxymethylcellulose (CMC) 98 % of control and 89 % of control | [2] 102 % of control | dose: 400.0 mg/kg/injection, schedule: Q01DX001 (ip), vehicle: carboxymethylcellulose (CMC) 89 % of control | dose: 400.0 mg/kg/injection, schedule: Q01DX009 (ip), vehicle: carboxymethylcellulose (CMC) 98 % of control and 105 % of control | dose: 400.0 mg/kg/injection, schedule: Q04DX002 (ip), vehicle: carboxymethylcellulose (CMC) 98 % of control | dose: 400.0 mg/kg/injection, schedule: Q04DX003 (ip), vehicle: carboxymethylcellulose (CMC) 90 % of control

NCCCCC(N)C(=O)Nc1ccc(Cc2ccc(NC(=O)C(N)CCCCN)cc2)cc1 (stereo not given)
inactive: [3] 103 % of control | [4] 100 % of control

OCC1SCCS1
inactive: [5] 101 % of control | [6] 97 % of control | [7] 90 % of control

Cc1cccc2c1C(=O)OC2(CC(=O)O)c1ccccc1 (stereo not given)
inactive: dose: 37.5 mg/kg/injection, schedule: Q04DX002 (ip), vehicle: saline with Tween-80 101 % of control | dose: 75.0 mg/kg/injection, schedule: Q04DX002 (ip), vehicle: saline with Tween-80 101 % of control | dose: 150.0 mg/kg/injection, schedule: Q04DX002 (ip), vehicle: saline with Tween-80 101 % of control

COc1ccc(C)cc1NC(=O)Nc1cc([N+](=O)[O-])ccc1F
inactive: [8] 87 % of control | [9] 104 % of control | [10] 108 % of control

Cc1cccn2ncnc12
inactive: dose: 50.0 mg/kg/injection, schedule: Q01DX001 (ip), vehicle: alcohol 106 % of control | dose: 100.0 mg/kg/injection, schedule: Q01DX001 (ip), vehicle: alcohol 107 % of control | dose: 200.0 mg/kg/injection, schedule: Q01DX001 (ip), vehicle: alcohol 102 % of control

Cc1c(Cl)cccc1NC(=O)Oc1ccccc1Cc1ccccc1
inactive: [11] 96 % of control and 102 % of control | dose: 100.0 mg/kg/injection, schedule: Q01DX001 (ip), vehicle: saline with Tween-80 95 % of control | [5] 96 % of control and 110 % of control | [12] 100 % of control | dose: 200.0 mg/kg/injection, schedule: Q01DX001 (ip), vehicle: saline with Tween-80 105 % of control | [6] 93 % of control and 92 % of control | [13] 94 % of control | dose: 400.0 mg/kg/injection, schedule: Q01DX001 (ip), vehicle: saline with Tween-80 86 % of control | dose: 400.0 mg/kg/injection, schedule: Q01DX009 (ip), vehicle: saline with Tween-80 97 % of control and 89 % of control | [7] 89 % of control and 91 % of control | dose: 400.0 mg/kg/injection, schedule: Q04DX003 (ip), vehicle: saline with Tween-80 86 % of control

COc1ccc(N=C2C(=O)Nc3ccc(Br)cc32)cc1
inactive: [8] 107 % of control | [9] 96 % of control | [10] 107 % of control

N#Cc1cncc(-c2ccccc2)c1
inactive: dose: 25.0 mg/kg/injection, schedule: Q04DX003 (ip), vehicle: Klucel (hydroxypropylcellulose) (HPC) 95 % of control | dose: 50.0 mg/kg/injection, schedule: Q04DX003 (ip), vehicle: Klucel (hydroxypropylcellulose) (HPC) 95 % of control | [14] 89 % of control

O=C(NNc1cccc(Cl)c1)C(O)C(O)C(O)C(O)CO (stereo not given)
inactive: [11] 107 % of control | dose: 100.0 mg/kg/injection, schedule: Q01DX009 (ip), vehicle: saline with Tween-80 98 % of control | dose: 200.0 mg/kg/injection, schedule: Q01DX009 (ip), vehicle: saline with Tween-80 115 % of control

Cc1cc(O)cc(C)c1C1=NCC(C)S1 (stereo not given)
inactive: [8] 104 % of control | [9] 90 % of control | [10] 90 % of control

NC(=O)C(O)c1ccccc1 (stereo not given)
inactive: dose: 100.0 mg/kg/injection, schedule: Q04DX003 (ip), vehicle: saline 96 % of control | dose: 200.0 mg/kg/injection, schedule: Q04DX003 (ip), vehicle: saline 94 % of control | dose: 400.0 mg/kg/injection, schedule: Q04DX003 (ip), vehicle: saline 100 % of control

O=[N+]([O-])c1ccc(Cl)c2c([N+](=O)[O-])cccc12
inactive: [12] 94 % of control | [13] 102 % of control

COc1ccccc1-n1c(O)c(N=Nc2ccc(Cl)cc2)c(=O)n(-c2ccc(Cl)cc2)c1=S
inactive: dose: 75.0 mg/kg/injection, schedule: Q04DX003 (ip), vehicle: Klucel (hydroxypropylcellulose) (HPC) 94 % of control | [15] 94 % of control | dose: 150.0 mg/kg/injection, schedule: Q04DX003 (ip), vehicle: Klucel (hydroxypropylcellulose) (HPC) 103 % of control | [16] 100 % of control | dose: 300.0 mg/kg/injection, schedule: Q04DX003 (ip), vehicle: Klucel (hydroxypropylcellulose) (HPC) 90 % of control

[O-]/[N+](=C\c1ccccc1)Cc1ccccc1
inactive: [1] 94 % of control | [2] 97 % of control

Cn1cc(F)c(=O)[nH]c1=O
inactive: dose: 5.0 mg/kg/injection, schedule: Q01DX Z (ip), vehicle: carboxymethylcellulose (CMC) 96 % of control | dose: 10.0 mg/kg/injection, schedule: Q01DX Z (ip), vehicle: carboxymethylcellulose (CMC) 100 % of control | dose: 20.0 mg/kg/injection, schedule: Q01DX Z (ip), vehicle: carboxymethylcellulose (CMC) 113 % of control | dose: 40.0 mg/kg/injection, schedule: Q01DX Z (ip), vehicle: carboxymethylcellulose (CMC) 96 % of control

O=C(O)CC1CC=CCC1CC(=O)O (stereo not given)
inactive: dose: 100.0 mg/kg/injection, schedule: Q01DX009 (ip), vehicle: saline sonified 95 % of control | dose: 200.0 mg/kg/injection, schedule: Q01DX009 (ip), vehicle: saline sonified 101 % of control | dose: 400.0 mg/kg/injection, schedule: Q01DX009 (ip), vehicle: saline sonified 104 % of control

ClC1=C(Cl)C(Cl)(C2(Cl)C(Cl)=C(Cl)C(Cl)=C2Cl)C(Cl)=C1Cl
inactive: [17] 93 % of control | [18] 102 % of control | [19] 95 % of control

O=C(Nc1cc(C(F)(F)F)ccc1Cl)Nc1ccc(Cl)cc1[N+](=O)[O-]
inactive: [17] 93 % of control | [18] 87 % of control | [19] 100 % of control

CN(C)S(=O)(=O)c1ccc(CCc2ccc(S(=O)(=O)N(C)C)cc2)cc1
inactive: [3] 93 % of control | [4] 91 % of control | dose: 200.0 mg/kg/injection, schedule: Q01DX001 (ip), vehicle: saline 91 % of control | dose: 400.0 mg/kg/injection, schedule: Q01DX001 (ip), vehicle: saline 96 % of control

O=[N+]([O-])NC(=NCCNc1ccccc1)Nc1ccccc1
inactive: dose: 100.0 mg/kg/injection, schedule: Q04DX002 (ip), vehicle: gum acacia 98 % of control | dose: 200.0 mg/kg/injection, schedule: Q04DX002 (ip), vehicle: gum acacia 98 % of control | dose: 400.0 mg/kg/injection, schedule: Q04DX002 (ip), vehicle: gum acacia 88 % of control

COC(=O)C1C2C=CC(C2=C(c2ccccc2)c2ccccc2)C1C(=O)OC (stereo not given)
inactive: [15] 98 % of control | [17] 96 % of control | [14] 107 % of control | [16] 97 % of control | [18] 102 % of control | dose: 200.0 mg/kg/injection, schedule: Q04DX003 (ip), vehicle: Klucel (hydroxypropylcellulose) (HPC) 100 % of control | dose: 400.0 mg/kg/injection, schedule: Q01DX001 (ip), vehicle: Klucel (hydroxypropylcellulose) (HPC) 92 % of control | [19] 96 % of control | dose: 400.0 mg/kg/injection, schedule: Q04DX003 (ip), vehicle: Klucel (hydroxypropylcellulose) (HPC) 100 % of control
